The values below come from BindingDB's records for patent US20240226107 (Simcere Zaiming Pharmaceutical Co., 2024).

Common to all, as to test: Assay for Inhibition of Compounds Provided in the Present Application on CYP Enzymes
The target in one data set is T1, Cytochrome P450 1A2 (Homo sapiens, UniProt P05177).
T1 sequence (P05177 whole entry): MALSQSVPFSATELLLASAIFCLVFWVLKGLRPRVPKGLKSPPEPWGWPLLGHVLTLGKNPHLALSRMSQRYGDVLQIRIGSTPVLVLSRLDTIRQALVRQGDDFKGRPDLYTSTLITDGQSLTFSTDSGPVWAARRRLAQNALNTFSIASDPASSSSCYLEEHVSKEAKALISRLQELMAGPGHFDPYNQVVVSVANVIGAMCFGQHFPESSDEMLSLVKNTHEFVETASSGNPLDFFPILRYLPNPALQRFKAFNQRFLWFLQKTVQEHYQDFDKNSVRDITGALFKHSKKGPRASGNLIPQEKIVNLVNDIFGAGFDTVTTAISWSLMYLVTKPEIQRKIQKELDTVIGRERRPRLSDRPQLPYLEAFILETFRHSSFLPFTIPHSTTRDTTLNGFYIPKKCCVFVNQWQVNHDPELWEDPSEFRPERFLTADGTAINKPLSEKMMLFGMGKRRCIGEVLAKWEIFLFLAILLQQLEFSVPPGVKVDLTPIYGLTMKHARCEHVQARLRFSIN
As for the experimental part: (§1) Typical substrate metabolic responses of five major human CYP subtypes (CYP1A2, CYP2C9, CYP2C19, CYP2D6, CYP3A4) were evaluated using 150-donor pooled human liver microsomes (purchased from Corning, Cat. No.: 452117). The influence of different concentrations of each compound to be tested on metabolic responses of phenacetin (CYP1A2), diclofenac sodium (CYP2C9), S-mephenytoin (CYP2C19), bufuralol hydrochloride (CYP2D6), and midazolam (CYP3A4) was determined by liquid chromatography-mass spectrometry (LC/MS/MS). The reaction system (200 μL) (100 mmol/L phosphate buffer, pH 7.4, containing DMSO, acetonitrile and methanol at a volume ratio of 0.3%:0.6%:0.1%) of 30 μM phenacetin, 10 μM diclofenac sodium, 35 μM S-mephenytoin, 5 μM bufuralol hydrochloride, 3 μM midazolam, 1 mM reduced nicotinamide adenine dinucleotide phosphate (NADPH), the compound to be tested (at concentrations of 0.1, 0.3, 1, 3, 10, 30 μmol/L, respectively), or positive compound or blank control, with pooled human liver microsomes (0.2 mg/mL) was incubated at 37° C. for 5 min. Then 200 μL of acetonitrile solution containing 3% formic acid and 40 nM internal standard verapamil was added and centrifuged at 4000 rpm for 50 min. The mixture was cooled on ice for 20 min and centrifuged at 4000 rpm for 20 min to precipitate the protein. Then 200 μL of supernatant was analyzed by LC-MS/MS.The peak area was calculated from the chromatogram.

For another data set, the target named is Cytochrome P450 2C9 (Homo sapiens, UniProt P11712). As for the experimental part:
as §1

Another data set has as its target Cytochrome P450 2C19 (Homo sapiens, UniProt P33261). As for the experimental part: as §1

Chain of Cytochrome P450 2C19 (P33261 whole entry): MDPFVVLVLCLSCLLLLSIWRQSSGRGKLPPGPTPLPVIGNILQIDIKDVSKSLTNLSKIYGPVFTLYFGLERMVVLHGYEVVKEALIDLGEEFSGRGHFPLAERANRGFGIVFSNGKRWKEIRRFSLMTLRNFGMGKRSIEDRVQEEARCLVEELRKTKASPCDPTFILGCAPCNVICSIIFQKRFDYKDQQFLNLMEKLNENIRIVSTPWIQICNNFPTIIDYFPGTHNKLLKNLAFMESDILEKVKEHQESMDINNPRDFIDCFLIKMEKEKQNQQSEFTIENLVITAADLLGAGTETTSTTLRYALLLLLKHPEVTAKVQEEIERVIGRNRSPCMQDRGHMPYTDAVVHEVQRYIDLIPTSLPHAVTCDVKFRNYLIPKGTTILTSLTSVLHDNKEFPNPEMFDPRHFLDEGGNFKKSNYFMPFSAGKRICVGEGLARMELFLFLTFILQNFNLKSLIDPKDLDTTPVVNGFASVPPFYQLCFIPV
Chain of Cytochrome P450 2C9 (P11712 whole entry): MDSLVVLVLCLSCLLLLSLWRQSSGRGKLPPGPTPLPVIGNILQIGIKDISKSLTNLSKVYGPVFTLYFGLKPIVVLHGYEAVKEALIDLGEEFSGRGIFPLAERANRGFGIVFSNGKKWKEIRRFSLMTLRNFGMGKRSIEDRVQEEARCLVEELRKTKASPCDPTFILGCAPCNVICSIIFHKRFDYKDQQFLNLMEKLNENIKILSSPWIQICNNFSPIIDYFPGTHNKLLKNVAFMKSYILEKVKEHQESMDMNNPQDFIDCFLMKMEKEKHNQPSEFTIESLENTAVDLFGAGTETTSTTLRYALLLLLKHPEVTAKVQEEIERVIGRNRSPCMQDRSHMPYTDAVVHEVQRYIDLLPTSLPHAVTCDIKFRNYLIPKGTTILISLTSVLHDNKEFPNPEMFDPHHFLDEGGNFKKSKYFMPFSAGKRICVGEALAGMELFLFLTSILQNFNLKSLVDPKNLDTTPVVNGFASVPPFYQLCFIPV

In general, IC50 refers to the point on the concentration scale where inhibition reaches its midpoint. Low values mean greater potency, high ones weaker potency. As for `COc1nccc(C2CC2)c1-c1ncc2c(n1)N(Cc1ccc(-c3nc(C(F)(F)F)cn3C)cc1)CC(=O)N2C` [US20240226107, Compound 11], the concentration for half-maximal inhibition (IC50) at Cytochrome P450 1A2 was above 30 µM; at Cytochrome P450 2C9 it was 28.9 µM; against Cytochrome P450 2C19, 17.1 µM.
